{"source": "patent US11815435B2", "about": "“Beta glucan immunopharmacodynamics” (HiberCell, Inc., priority 2017, dated 2023)", "assay_type_in_all_cases": "in vivo, human", "key": {"[1]": {"tested_on": "intermediate monocytes; switched memory B cells and plasmablasts", "assay": "Flow cytometry of PBMC for monocyte populations, activation markers and B cells", "method": "Here, PBMC were stained with indicating markers and analyzed by flow cytometry. Each of the populations were assessed for expression of activation markers CD86, ICAM-1, HLA-DR and PD-L1 24 hours after infusion. In addition, approximately one week post-infusion, increased switched memory B cells and plasmablasts were detected (data not shown)."}, "[2]": {"tested_on": "anti-β-glucan antibody (ABA IgG, ABA IgM)", "assay": "Example 1: IgG and IgM ABA levels in a cancer subject on IVIG, IMPRIME PGG and pembrolizumab", "settings": "same subject and regimen", "method": "Soluble β-glucan immunotherapy was administered to a subject diagnosed with glucaganoma. The subject's ABA level prior to immunotherapy treatment placed them in the Low-ABA subgroup, and therefore, their ABA level was boosted by administration of IVIG. GAMMAGARD at 100 mg/ml was intravenously administered prior to each treatment, which provided 161 μg ABA/ml. […] Each cycle was 3 weeks."}, "[3]": {"tested_on": "innate immune activation marker genes", "assay": "Gene expression in whole blood (Quantigeneplex)", "settings": "3 hr post-infusion vs. pre-dose, no premedications", "excerpt": "Whole blood was collected in PaxGene blood collection tubes (BD Biosciences) at various time points pre- and post-PGG administration. RNA was isolated and assayed by Quantigeneplex (Affymetrix) and the relative fold changes were log 2 transformed. Data presented are from subjects treated with PGG without premedications."}, "SC5b-9": {"tested_on": "SC5b-9", "assay": "Example 1: complement activation (SC5b-9) in the cancer subject", "settings": "cancer subject after conversion to High-ABA subgroup; IMPRIME PGG 4 mg/kg once every 3 weeks"}, "[4]": {"tested_on": "anti-β-glucan antibody (IgG ABA)", "assay": "Anti-β-glucan antibody (ABA) levels in serum by ELISA after IV PGG, Phase I healthy donor trial", "settings": "for ABA level changes: single dose PGG IV", "method": "IPD changes induced by yeast soluble β-glucan were evaluated in a Phase I healthy donor trial, which included three cohorts of 12 healthy human volunteers aged 18-65 years. In Cohort 1, subjects were administered a single dose of 4 mg/kg yeast soluble β-glucan by IV infusion over 2-3 hours. In Cohort 2, subjects were administered 4 mg/kg PGG by IV infusion over 2-3 hours once weekly for 3 weeks. Half of the subjects received premedications which included low dose corticosteroids (4 mg of dexamethasone, PO) and low-dose H1 antagonists (50 mg diphenhydramine.\nIn Cohort 3, subjects received either 2 mg/kg PGG or 4 mg/kg PGG by IV infusion over 1-2 hours. The subjects were administered either dose of PGG once weekly for 2 weeks, then given a 2 week wash out (no PGG) and finally received one more dose of PGG (week 5). Adverse events and complete blood counts were evaluated. In addition, whole blood and serum was evaluated for the following at various time points post-infusion: PGG binding to immune cells (monocytes, neutrophils, B-cells, DC subsets), complement activation (C5a and Sc5b9), serum cytokine/chemokine levels, IgG ABA levels, flow cytometry of immune cells, circulating immune complex formation and Quantigene analysis of transcriptional profile. Table 1 lists each subject's pre-dose IgG ABA levels, PGG dose and whether they received premedications.\nSubjects were stratified/classified into subgroups based on pre-infusion ABA levels. ABA cutoff levels were selected based on prior studies and are only exemplary. Classification may include only 2 subgroups based on an IgG ABA cutoff level of 15 μg/ml, 20 μg/ml, 25, μg/ml, 30 μg/ml, 35 μg/ml, 40 μg/ml, 45 μg/ml or 50 μg/ml. Classification may also include 3, 4, 5 or more subgroups with each subgroup corresponding to a specific IgG ABA level range. For example, a 3 subgroup classification may include a Low-ABA subgroup encompassing ABA level ranges of <15 μg/ml, <20 μg/ml, <25 μg/ml or <30 μg/ml, a Mid-ABA subgroup encompassing a range having a low end ABA level of 20 μg/ml, 25 μg/ml, 30 μg/ml, 35 μg/ml, 40 μg/ml or 45 μg/ml and a high end ABA level of 30 μg/ml, 35 μg/ml, 40 μg/ml, 45 μg/ml, 50 μg/ml or 55 μg/ml, and a High-ABA subgroup encompassing ABA level ranges of >35 μg/ml, >40 μg/ml, >45 μg/ml, >50 μg/ml, >55 μg/ml, >60 μg/ml, >65 μg/ml or >70 μg/ml. As discussed in International Published Application No. WO2015084732A1, various ABA cutoff levels may be used for reasons such as differences in soluble β-glucan immunotherapy treatments and preferences regarding inclusiveness and exclusiveness of subgroups. Here, subjects whose ABA levels were less than 20 μg/ml were considered Low-ABA. Subjects with ABA levels between 20 μg/ml and 50 μg/ml were considered Mid-ABA. Subjects with ABA levels greater than 50 μg/ml were High-ABA. Serum and cellular IPD markers were analyzed pre-infusion, 15 minutes, 30 minutes and 1 hour post-infusion, end of infusion (EOI) and 1 hour, 2 hours, 3 hours, 4 hours, 24 hours, 48 hours and 168 hours after EOI.\nABA levels were then followed in subjects through single and multiple doses of PGG. ABA levels were measured in serum by ELISA, and subjects were placed in subgroups based on pre-infusion ABA levels: Low-ABA (<20 μg/mL), Mid-ABA (20-50 μg/mL) or High-ABA (>50 μg/mL). Whole blood or serum was drawn from the subjects at various time points before and after a single dose (Cohort 1) or multiple weekly doses (Cohorts 2 and 3) of PGG infusion. […] In some cases, such as shown for subject 67 in the Low-ABA subgroup, the increase may lead to a change in subgroup (Low-ABA to Mid-ABA).\nIncreasing the time between soluble β-glucan doses may not only promote repeated acute IPD responses but also enhance acute IPD responses, which may increase the effectiveness of soluble β-glucan therapy. […]"}}, "data": [{"substance": "β(1,6)-[poly-(1,3)-D-glucopyranosyl]-poly-β(1,3)-D-glucopyranose [PGG]", "values": [{"measurement": "appearance of intermediate monocytes and activation markers", "setting": "[1]; 24 hrs after EOI, High-ABA subjects", "value": "a population of intermediate monocytes expressing higher levels of the activation markers CD86, PD-L1 and HLA-DR was observed"}, {"measurement": "switched memory B cells and plasmablasts", "setting": "[1]; approximately one week post-infusion, data not shown", "value": "increased"}, {"measurement": "ABA IgG", "setting": "[2]; cycle 1, day 2 EOI IMPRIME", "value": 17.9, "unit": "µg/mL"}, {"measurement": "ABA IgM", "setting": "[2]; cycle 1, day 2 EOI IMPRIME", "value": 6.0, "unit": "µg/mL"}, {"measurement": "ABA IgG", "setting": "[2]; cycle 1, day 3", "value": 14.5, "unit": "µg/mL"}, {"measurement": "ABA IgM", "setting": "[2]; cycle 1, day 3", "value": 8.3, "unit": "µg/mL"}, {"measurement": "ABA IgG", "setting": "[2]; cycle 1, day 9", "value": 10.2, "unit": "µg/mL"}, {"measurement": "ABA IgM", "setting": "[2]; cycle 1, day 9", "value": 10.1, "unit": "µg/mL"}, {"measurement": "ABA IgG", "setting": "[2]; cycle 2, day 1 EOI-IMPRIME", "value": 50.4, "unit": "µg/mL"}, {"measurement": "ABA IgM", "setting": "[2]; cycle 2, day 1 EOI-IMPRIME", "value": 11.7, "unit": "µg/mL"}, {"measurement": "ABA IgG", "setting": "[2]; cycle 2, day 1 pre-IVIG", "value": 22.3, "unit": "µg/mL"}, {"measurement": "ABA IgM", "setting": "[2]; cycle 2, day 1 pre-IVIG", "value": 18.5, "unit": "µg/mL"}, {"measurement": "ABA IgG", "setting": "[2]; cycle 3, day 1 EOI-IMPRIME", "value": 57.4, "unit": "µg/mL"}, {"measurement": "ABA IgG", "setting": "[2]; cycle 3, day 1 pre-IVIG", "value": 21.9, "unit": "µg/mL"}, {"measurement": "expression of innate immune activation marker genes", "setting": "[3]", "value": "consistently increased in subjects with higher levels of ABA"}, {"measurement": "complement activation (SC5b-9 levels)", "setting": "SC5b-9", "value": "Acute increases in complement activation"}, {"measurement": "ABA levels over the 5 week course of treatment", "setting": "[4]; Cohort 3: weeks 1, 2, 2 week wash out, week 5 dose, High-, Mid-, Low-ABA subjects", "value": "Increases in ABA were seen in all subjects with the largest increase occurring after administration of the week 5 dose"}, {"measurement": "ABA subgroup classification", "setting": "[4]; Cohort 3 Low-ABA subject, after the last (week 5) dose", "value": "converted to the Mid-ABA classification"}, {"measurement": "ABA level changes", "setting": "[4]; High-ABA (>50 μg/ml) healthy subjects", "value": "dropped during infusion with PGG and then rebounded about 48 hours EOI"}, {"measurement": "ABA level changes", "setting": "[4]; Low-ABA (<20 μg/ml) healthy subjects", "value": "essentially unaffected"}, {"measurement": "ABA level changes", "setting": "[4]; Mid-ABA (20-50 μg/ml) healthy subjects", "value": "increased at 48 hours after the EOI"}, {"measurement": "ABA levels after multiple doses", "setting": "[4]; multiple weekly doses of PGG (Cohorts 2 and 3)", "value": "can increase ABA levels for some subjects"}]}]}
